Data reported in patent US20140096284A1, “METHOD FOR THE DELIVERY OF MOLECULES LYOPHILIZED ONTO MICROPARTICLES TO PLANT TISSUES” (priority 2012, published 2014).

Key:
[1] = tested on: onion epidermis tissue; test: Biolistic delivery of molecules lyophilized onto 0.6 μm gold microcarriers to onion epidermis tissue; format: cell-based; settings: lyophilized onto 0.6 μm gold, observed about 30 minutes after bombardment
Description: 2 μL of 0.6 μm gold particle stock was mixed with 1 μg of GFP plasmid pLMNC95 or 2 μL of a 400 ng/μL, TRITC-BSA solution. The mixture was poured on a macrocarrier, frozen in liquid nitrogen and freeze-dry for 1 hour prior to onion epidermis tissue bombardment.
Onion epidermis tissue was obtained from the scale leaves of white onion bulbs. Rectangular (3×2.5 cm) pieces were peeled right before the bombardment and placed in solid agar media (0.5 mM of 2-(N-morpholino)ethanesulfonic acid (MES), 15 g L^−1 Bacto agar (BD), pH 5.7) with the peeled side upwards. For quantitative measurements, epidermis pieces of the same scale leaf were distributed among treatments. Tobacco leaves (Nicotiana tabacum var. Petite Havana) were obtained from 3-6 week old in vitro grown plants on MS media (MS medium (Murashige and Skoog, 1962), 2% sucrose, 2.5 g L^−1 gelrite, pH 5.7). Leaves were cut right before bombardment and put with the adaxial surface up on agar media. Hill maize immature embryos were obtained from immature ears provided by the Center for Plant Transformation—Iowa State University. […]
Bright field and fluorescence images were taken using a Zeiss Axio star plus microscope. […] For the green channel fluorescence images a GFP BP filter (Chroma Technology Corp.) was used (λex=470 nm, beam splitter=495 nm and λem=525 nm). […]

[2] = tested on: onion epidermis tissue; test: Control: solution deposited or incubated on onion epidermis tissue without coated projectiles; format: cell-based; settings: solution on the surface of onion epidermis tissue
Description: The dye bromophenol blue was used to test the ability of the system to deliver a chemical. As a control, a saturated solution of the dye (10 μL of a 100 μg μL^−1 mg) was deposited with a pipette on top of onion epidermis tissue. […] For the bromophenol blue delivery, the saturated solution was mixed with 0.6 μm gold microcarriers and an aliquot was deposited over a macrocarrier set. This macrocarrier set was frozen in liquid nitrogen for 5-10 minutes and then lyophilized for an hour using a lyophilizer. This macrocarrier set was subsequently used to bombard onion epidermis tissue. […] The amount of dye delivered to each cell was different, and as a consequence, different shades of purple could be observed in the bombarded tissue (FIG. 3C).
Protein delivery can be considered a difficult challenge because proteins could be subjected to denaturation during the delivery process. […] This protein will not fluoresce if denatured (Ward and Bokman, 1982). As a control, to test if the protein could be diffused into plant cells, 10 μL of a 100 ng/μL eGFP solution were incubated for 30 minutes on the surface of intact onion epidermis tissue or bombarded with bare 0.6 μm gold microparticles. […] Lyophilization of eGFP onto 0.6 μm gold microcarriers was done using 2.5 μL of 1 μg μL^−1 solution of the protein and 60 μg of microcarriers per shot.

[3] = tested on: tobacco leaf cells; test: Biolistic delivery of molecules lyophilized onto 0.6 μm gold to tobacco leaf tissue; format: cell-based, Nicotiana tabacum var. Petite Havana; settings: 250 μg per shot lyophilized onto 0.6 μm gold; tobacco leaves
Description: (§1) Onion epidermis tissue was obtained from the scale leaves of white onion bulbs. Rectangular (3×2.5 cm) pieces were peeled right before the bombardment and placed in solid agar media (0.5 mM of 2-(N-morpholino)ethanesulfonic acid (MES), 15 g L^−1 Bacto agar (BD), pH 5.7) with the peeled side upwards. For quantitative measurements, epidermis pieces of the same scale leaf were distributed among treatments. Tobacco leaves (Nicotiana tabacum var. Petite Havana) were obtained from 3-6 week old in vitro grown plants on MS media (MS medium (Murashige and Skoog, 1962), 2% sucrose, 2.5 g L^−1 gelrite, pH 5.7). Leaves were cut right before bombardment and put with the adaxial surface up on agar media. Hill maize immature embryos were obtained from immature ears provided by the Center for Plant Transformation—Iowa State University. Immature embryos (1-2 mm long) were cultured as previously described (Frame et al., 2000).
(§2) The saturated solutions of chemical or biomolecules used were done as follows (data per shot): for bromophenol blue (Sigma) delivery 10 μL of a 100 μg 1 μL^−1 mg solution were used. For plasmid DNA delivery, 2 μL of a 500 ng μL^−1 solution of the plasmid pLMNC95 (Luke Mankin and Thompson, 2001) were used for GFP expression. For mCherry expression linear dsDNA, the plasmid ER-rk (Nelson et al., 2007) was digested with the restriction enzymes SacI-HindIII. […]

[4] = tested on: maize immature embryos; test: Biolistic delivery of molecules lyophilized onto 0.6 μm gold to maize immature embryos; format: cell-based; settings: 250 μg per shot lyophilized onto 0.6 μm gold; maize Hi II immature embryo scutella
Description: as §1, §2

[5] = tested on: onion epidermis tissue; test: Fluorescein diacetate staining, count of dead cells after bombardment; format: cell-based; settings: 250 μg per shot
Description: Onion epidermis tissues were submerged in 10 mL of MS liquid media to which 100 μL of a 5 mg mL^−1 of fluorescein diacetate (Alfa Aesar) solution in acetone were added. The samples were incubated for 2-5 minutes and directly observed under the green channel filter of the fluorescence microscope. For quantitative measurements, 12 images (10.5×8 mm) were taken with the 5× microscope objective scattered every 0.5 cm (4 columns×3 rows). The total amount of dead cells found on each image was counted.
The high concentration of protein used per shot (250 μg per shot) and the lyophilization process could cause cell death by: (1) physical damage of the potential clumps produced after lyophilizing protein and microparticles and (2) excess of intracellular protein delivery reaching toxic levels. To assess cellular death, onion epidermis tissues were stained with fluorescein diacetate, which stains in fluorescent green the living cells, while the dead ones remain dark (FIG. 7A). […]
As another example of active enzyme delivery, trypsin and RNAse A were chosen. […] The number of dead cells was measured using fluorescein diacetate staining in samples not bombarded, bombarded only with 0.6 μm gold or with 200 μg of trypsin or 40 μg of RNAse per shot. […]

Molecule | intracellular delivery after bombardment [1] | permeation or diffusion into cells without coated projectiles [2] | protein delivery (red fluorescence) [3] | protein delivery (red fluorescence) [4] | number of dead cells compared with bombardment without the protein ([5]; 1 day after bombardment, differences were not significant) | viability of cells showing protein delivery ([5]; stained 1 day after bombardment)
O=S1(=O)OC(c2cc(Br)c(O)c(Br)c2)(c2cc(Br)c(O)c(Br)c2)c2ccccc21 [bromophenol blue, reference compound] | several cells were showing bluish-purple coloration | did not permeate |  |  |  | 
tetramethylrhodamine isothiocyanate labeled bovine serum albumin [TRITC-BSA] | successfully delivered |  | delivery could be observed | delivery could be observed | higher | most of the cells showing TRITC-BSA delivery were alive
